Molecules are shown by their SMILES.

One data set deals with PDGFRα+ cells. Description: Flow cytometry of hindlimb skin after lymphadenectomy. Type of data set: in vivo, mouse. The procedure: (§1) A total of 32 mice underwent lymphedema surgery were randomly assigned into two groups, lymphedema group and rosiglitazone group (n=16). Rosiglitazone (Combi-Blocks, San Diego, USA) was dissolved in DMSO at the concentration of 25 mg/ml, and was diluted in corn oil to the final concentration of 2.5 mg/ml before injection. Mice in rosiglitazone group were intraperitoneally injected with rosiglitazone (10 mg/kg) twice a week from the day of surgery (day 0, 3, 7, 10, 14, 17). Mice in lymphedema group were injected with corn oil only at same time point. 8 mice in lymphedema group and rosiglitazone group were sacrificed on day 7 (n=8 per group), the rest of them were sacrificed on day 21 (n=8 per group). Another 18 mice were randomly divided into three groups, normal control group, lymphedema group, and rosiglitazone group, skin cells from these mice were isolated and used for flow cytometry analysis at day 7 (n=3 per group per staining).
Flow cytometry was performed using single-cell suspensions obtained from skin and subcutaneous tissue. 1×1 cm tissue harvested from the mice hindlimb were minced with scissors and digested by using collagenase type I (1 mg/ml) and dispase (2 mg/ml) at 37° C. on a shaker. All suspensions were filtered through 100 μm filters.
Cells were then stained with following conjugated antibodies: APC-PDGFRα (1:100), APC-PDGFRβ (1:100), HCS LipidTOX red neutral lipid stains (1:200), APC-CD45 (1:150), PE-CD3 (1:150), PerCP-Cy5-CD4 (1:150). Flow cytometry was performed on the Beckman Cytoflex FCM using CytExpert software (Beckman Coulter, CA, USA) and data were analyzed with FlowJo software (Tree Star; Ashland, OR).

Data set [1] deals with hindlimb secondary lymphedema after lymphadenectomy. Description: Mouse hind limb lymphedema model (lymphadenectomy): limb measurements and histology. Format: in vivo. Conditions: rosiglitazone 10 mg/kg i.p. twice a week; for Dermal thickness / Overall skin thickness / Subdermal layer (fibroadipose tissue) thickness: H&E.
Description: Evans blue (Sigma) (4% in PBS) was filtered and injected into mouse foot pad to stain lymph nodes in hind limb. Mouse hind limb secondary lymphedema was induced by surgical excision of the ipsilateral superficial inguinal, popliteal, deep inguinal lymph nodes, and the femoral lymphatic vessel. During surgical procedures, electrocauterization were used to prevent bleeding.
as §1
Sacrifice was performed via CO2 asphyxiation. Skin and muscle of hind limb were harvested, fixed in 10% formalin for 48 h followed by 70% ethanol for histological assessment. Formalin-fixed tissues were then dehydrated, embedded in paraffin, and sectioned with 5-micron-thickness.
Sections were stained either with Hematoxylin and Eosin (H&E) or Picrosirius Red according to standard protocol, and used to assess the overall skin thickness, dermal thickness, fibroadipose tissue thickness, and fibrosis, respectively. Quantitative histological analysis was performed using samples from day 7 and 21.
Images were captured by using Olympus BX53 (UCMAD3, T7, Japan) and all-in-one Keyence (Itasca, IL, USA) microscopes and assessed by ImageJ (version 1.52a; […]) by two independent researchers under blinded conditions. Fibrosis was assessed with the image thresholding plugin in ImageJ software, normalization is based on the length of the section (v1.52a; […]).

For data set [2] the following is noted: systemic rosiglitazone [Ref. 20,21]; cited from earlier work.
Data set [3] concerns adipose-derived mesenchymal stem cells (AdMSCs) treated with TGFβ1. Description: Adipogenic and fibrogenic gene expression (RT-PCR) in AdMSCs treated with TGFβ1 with or without rosiglitazone. Type of data set: cell-based, mouse. To be noted: TGFβ1 10 ng/ml + rosiglitazone 10 μM, 7 days, v. TGFβ1 without rosiglitazone. As to the method: Previous studies have established that PPARg agonists reverse the effects of pro-fibrotic transforming growth factor-beta (TGFβ) ligands.
Mice adipose-derived stem cells (ADSCs) were isolated from adult male C57BL/6J mice inguinal fat pad. ADSCs were cultured in DMEM/F12 (Sigma, Logan, UT) supplemented with 10% Fetal Bovine Serum (FBS) (Sigma) and antibiotics (penicillin and streptomycin, Hyclone). ADSCs were maintained at 37° C. under a 5% CO2 atmosphere. For rosiglitazone treatment experiment, ADSCs were treated with/without recombinant TGFβ1 (10 ng/ml) (Invitrogen, USA) and rosiglitazone (10 μM) for 7 days after seeded ([…]) in 6-well plates.
Total RNA was isolated from ADSCs using TRI reagent and RNA extraction kit (Zymo Research, Irvine, CA). First-strand cDNA was synthesized by using iScript RT-PCR mix (BioRad, Hercules, CA) according to user manual. SYBR green qPCR master Mix (BioRad, Hercules, CA), primers, and cDNA were mixed in a final reaction volume of 10 μl. Real time polymerase chain reaction (RT-PCR) were performed by using Applied Biosystems 7300 Fast Real-Time PCR System (AB) according to the manufacturer's instructions.

[4] abbreviates: 1 cm×1 cm area of skin, day 7 after lymphadenectomy.
Where [5] appears, read: 1 week after lymphadenectomy, normalized to uninjured hindlimb.

For `CN(CCOc1ccc(CC2SC(=O)NC2=O)cc1)c1ccccn1` (stereo not shown) [rosiglitazone], in the data set on PDGFRα+ cells (setting [4]), the “Absolute number of PDGFRα+LipidTOX+ cells” value is 862; the “FSC^high PDGFRα+LipidTOX+ cells (cell size)” value came out at 73; the “PDGFRα+ cells, absolute count” value was 0.9×10^3. In addition, the “PDGFRα+LipidTOX+ cells as a proportion of total PDGFRα cells” value in the data set with PDGFRα+ cells (day 7 after lymphadenectomy, results section) is 86%. In addition, the “Share of PDGFRα+ cells that were LipidTOX+” value with PDGFRα+ cells (rosiglitazone-treated samples) was “over 90%”. Further, in data set [1] (setting [5]), the Normalized edema size stood at 1.08 and the Normalized hindlimb circumference is 1.31. In data set [1] (1 week), the Dermal thickness is given as 438.54, the Overall skin thickness is reported as 924.66 μm, the “Subdermal layer (fibroadipose tissue) thickness” value is reported as 486.12 μm and the “Normalized hindlimb fibrosis (picrosirius red)” value is listed as 0.130. Also, in data set [1] (3 week), the Dermal thickness came to 403.76, the Overall skin thickness is recorded as 646.12 μm, the “Subdermal layer (fibroadipose tissue) thickness” value is recorded as 242.36 μm and the “Normalized hindlimb fibrosis (picrosirius red)” value worked out at 0.128. Further, in data set [2], the Adverse effects entry was “fluid retention, heart failure, and fractures”. In data set [3], the Adipoq expression level was found to be 2.40, the Col1a1 expression level was found to be 0.76, the Ctgf expression level came out at 0.80 and the Fn1 expression level is recorded as 0.82. In addition, in data set [3], the Lpl expression level is reported as 2.53 and the Pdgfra expression level came out at 0.72.

These data come from patent publication US20250352528A1, “TOPICAL ROSIGLITAZONE FOR RADIATION-INDUCED SKIN INJURY” (The Brigham and Women's Hospital, Inc., priority 2022, published 2025).
